Data taken from US20160122340A1, “HISTONE DEACETYLASE INHIBITORS BASED ON DERIVATIVES OF TRICYCLIC POLYHYDROACRIDINE AND ANALOGS POSSESSING FUSED SATURATED FIVE-AND-SEVEN-MEMBERED RINGS” (QUIMATRYX, S.L., priority 2013, published 2016).

Columns and labels:
[1] = biological target: T1, Human HDAC5 (Homo sapiens, UniProt Q9UQL6); experiment: In vitro HDAC5 inhibition, fluorogenic substrate; type: biochemical; settings: read-out: IC50 (μM) HDAC-5
T1 construct: Full length with Nterminal GST tag, MW=150 kDa; GST (N); purchased BioMol, Hamburg, Germany; host or cells: baculovirus / Sf9 cells
Description: (§1) In Vitro Inhibitory Activity of Histone Deacetylase: Human Isoforms HDAC1, 2, 3, 4, 5, 6, 7, 8, 9, 10 and 11 and HeLa Cell Line Nuclear Extract (IC50 Data)
(§2) All HDAC assays were performed using acetylated AMC-labeled peptide substrate: • Substrate for isoforms HDAC1, 2, 3, 6, 10, 11 and HeLa nuclear extract assays: Acetylated fluorogenic peptide from p53 residues 379-382 (RHKKAc). • Substrate for isoforms HDAC 4, 5, 7, 9: Fluorogenic Boc-L-Lys(ε-trifluoroacetyl)-AMC. • Substrate for HDAC8 assays: Acetylated fluorogenic peptide from p53 residues 379-382 (RHKAcKAc).
(§3) 50 μM of substrate peptide (see ‘substrate peptides’ section above) and an optimal concentration of the corresponding enzyme (see ‘enzymes’ section above) in the assay buffer and 1% final concentration of DMSO were incubated in the presence of gradient concentrations of inhibitors (10-dose IC50 mode with 3-fold serial dilution) at 30° C. for 2 h. The reactions were carried out in a 96-well microplate for fluorometry in a 50 μl reaction volume. After the deacetylation reaction, Fluor-de-Lys-Developer (BioMol Cat. # KI-105) was added to each well to digest the deacetylated substrate, thus producing the fluorescent signal. The reaction was allowed to develop for 45 minutes at 30° C. with 5% CO2; then the fluorescent signal was measured with an excitation wavelength at 360 nm and an emission wavelength at 460 nm in a microplate-reading fluorometer (GeminiXS; Molecular Devices, Sunnyvale, Calif.). A curve of Deacetylated Standard (Biomol, Cat. # KI-142; made from 100 μM with 1:2 dilution and 10-doses, 6 μl) allowed the conversion of fluorescent signal into micromoles of deacetylated product. All experiments were performed in triplicate. IC50 was calculated by fitting the experimental data to a dose-response curve. DMSO was used as negative control; Trichostatin A (Biomol Cat. # GR-309) was used as positive control inhibitor.

[2] = biological target: T2, Human HDAC6 (Homo sapiens, UniProt Q9UBN7); experiment: In vitro HDAC6 inhibition, fluorogenic peptide substrate; type: biochemical; settings: read-out: IC50 (μM) HDAC-6
T2 construct: Full length with N-terminal GST tag, MW=159 kDa; GST (N); purchased BioMol SE-508; host or cells: baculovirus / Sf9 cells
T2 sequence (Q9UBN7 1-1215): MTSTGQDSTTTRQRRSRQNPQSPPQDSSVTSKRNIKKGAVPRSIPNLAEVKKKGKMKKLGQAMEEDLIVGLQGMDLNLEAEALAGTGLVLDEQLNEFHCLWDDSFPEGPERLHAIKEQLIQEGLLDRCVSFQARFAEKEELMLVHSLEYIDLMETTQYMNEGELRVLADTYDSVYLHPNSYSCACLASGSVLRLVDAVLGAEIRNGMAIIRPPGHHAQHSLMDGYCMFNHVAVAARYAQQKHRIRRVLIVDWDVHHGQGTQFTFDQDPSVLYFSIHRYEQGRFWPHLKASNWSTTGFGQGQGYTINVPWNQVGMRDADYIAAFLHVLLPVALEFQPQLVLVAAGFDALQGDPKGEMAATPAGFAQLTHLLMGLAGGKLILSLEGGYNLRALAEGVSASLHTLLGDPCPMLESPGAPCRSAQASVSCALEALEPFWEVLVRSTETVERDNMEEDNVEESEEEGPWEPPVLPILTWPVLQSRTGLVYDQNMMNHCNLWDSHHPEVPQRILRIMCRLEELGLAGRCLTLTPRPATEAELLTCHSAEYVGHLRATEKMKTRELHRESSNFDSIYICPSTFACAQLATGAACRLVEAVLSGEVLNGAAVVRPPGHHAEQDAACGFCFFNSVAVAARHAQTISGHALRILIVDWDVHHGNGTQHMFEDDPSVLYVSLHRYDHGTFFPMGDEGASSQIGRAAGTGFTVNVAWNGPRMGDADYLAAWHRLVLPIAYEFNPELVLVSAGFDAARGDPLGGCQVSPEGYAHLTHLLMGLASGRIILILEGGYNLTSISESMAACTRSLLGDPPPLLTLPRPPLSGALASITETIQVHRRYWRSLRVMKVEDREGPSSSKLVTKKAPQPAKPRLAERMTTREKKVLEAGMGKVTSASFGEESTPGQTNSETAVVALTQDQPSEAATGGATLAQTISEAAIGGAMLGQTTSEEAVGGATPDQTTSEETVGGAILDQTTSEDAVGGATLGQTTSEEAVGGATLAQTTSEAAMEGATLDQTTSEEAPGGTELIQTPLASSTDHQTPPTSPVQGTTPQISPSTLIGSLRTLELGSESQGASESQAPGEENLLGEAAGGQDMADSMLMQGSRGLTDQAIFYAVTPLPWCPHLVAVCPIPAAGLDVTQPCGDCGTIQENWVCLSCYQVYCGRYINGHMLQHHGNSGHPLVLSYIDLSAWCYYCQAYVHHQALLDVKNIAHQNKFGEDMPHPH
Description: as §1, §2, §3

[3] = biological target: T3, Human HDAC7 (Homo sapiens, UniProt Q8WUI4); experiment: In vitro HDAC7 inhibition, fluorogenic substrate; type: biochemical; settings: read-out: IC50 (μM) HDAC-7
T3 construct: Amino acids 518-end with N-terminal GST tag, MW=78 kDa; GST (N); purchased BioMol, Hamburg, Germany; host or cells: baculovirus expression system
T3 sequence (Q8WUI4 518-952 limits assumed): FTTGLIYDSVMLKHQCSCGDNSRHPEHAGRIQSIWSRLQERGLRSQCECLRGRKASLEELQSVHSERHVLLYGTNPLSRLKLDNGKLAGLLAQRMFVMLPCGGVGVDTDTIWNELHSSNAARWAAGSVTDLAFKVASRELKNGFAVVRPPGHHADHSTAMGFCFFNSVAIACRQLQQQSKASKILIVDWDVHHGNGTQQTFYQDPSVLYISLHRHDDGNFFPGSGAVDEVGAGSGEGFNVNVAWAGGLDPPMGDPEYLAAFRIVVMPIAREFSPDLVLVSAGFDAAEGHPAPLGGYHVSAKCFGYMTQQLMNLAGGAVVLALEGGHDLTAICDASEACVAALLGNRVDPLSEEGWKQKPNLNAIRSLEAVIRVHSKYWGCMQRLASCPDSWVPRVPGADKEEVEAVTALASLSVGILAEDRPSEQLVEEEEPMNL
Description: as §1, §2, §3

T1 sequence (Q9UQL6 1-1123 isoform Q9UQL6-3): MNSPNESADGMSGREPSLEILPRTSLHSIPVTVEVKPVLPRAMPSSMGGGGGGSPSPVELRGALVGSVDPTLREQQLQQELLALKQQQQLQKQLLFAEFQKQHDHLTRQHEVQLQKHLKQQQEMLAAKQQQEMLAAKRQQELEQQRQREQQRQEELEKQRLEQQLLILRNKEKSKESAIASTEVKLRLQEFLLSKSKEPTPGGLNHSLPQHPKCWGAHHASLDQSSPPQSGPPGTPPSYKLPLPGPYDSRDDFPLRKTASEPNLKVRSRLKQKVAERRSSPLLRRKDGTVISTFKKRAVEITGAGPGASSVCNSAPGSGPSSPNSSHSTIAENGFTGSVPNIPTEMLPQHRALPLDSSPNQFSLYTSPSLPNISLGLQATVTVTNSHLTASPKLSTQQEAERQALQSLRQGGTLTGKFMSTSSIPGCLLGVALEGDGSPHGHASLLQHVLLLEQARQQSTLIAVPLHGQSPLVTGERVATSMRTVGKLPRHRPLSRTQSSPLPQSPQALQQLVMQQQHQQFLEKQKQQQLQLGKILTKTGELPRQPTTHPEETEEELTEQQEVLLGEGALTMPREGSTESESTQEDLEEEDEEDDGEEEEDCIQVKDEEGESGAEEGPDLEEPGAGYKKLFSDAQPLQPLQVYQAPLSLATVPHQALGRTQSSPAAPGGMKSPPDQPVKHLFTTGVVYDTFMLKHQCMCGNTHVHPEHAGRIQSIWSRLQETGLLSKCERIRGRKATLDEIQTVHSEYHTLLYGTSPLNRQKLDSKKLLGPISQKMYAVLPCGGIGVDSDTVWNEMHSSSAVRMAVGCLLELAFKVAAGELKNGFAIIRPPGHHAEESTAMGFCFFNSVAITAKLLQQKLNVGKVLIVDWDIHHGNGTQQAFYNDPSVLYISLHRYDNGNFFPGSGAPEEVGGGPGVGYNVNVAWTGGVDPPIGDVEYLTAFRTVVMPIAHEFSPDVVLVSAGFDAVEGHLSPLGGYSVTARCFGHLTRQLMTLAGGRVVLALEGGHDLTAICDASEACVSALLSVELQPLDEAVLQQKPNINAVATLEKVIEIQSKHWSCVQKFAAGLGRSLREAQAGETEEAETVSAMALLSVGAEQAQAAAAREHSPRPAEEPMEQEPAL

Row | Compound | melting point [°C] | IC50 [1] [µM] | IC50 [2] [µM] | IC50 [3] [µM]
1 | O=C(CCCCCNc1c2c(nc3ccccc13)CCCC2)NO [Example 1, N-hydroxy-6-[(1,2,3,4-tetrahydroacridin-9-yl)amino]hexanamide] | 162 to 164 | 2.14 | 0.036 | 4.55
2 | O=C(CCCCCCNc1c2c(nc3ccccc13)CCCC2)NO [Example 2, N-hydroxy-7-[(1,2,3,4-tetrahydroacridin-9-yl)amino]heptanamide] | 156 to 157 | 0.44 | 0.01 | 0.77
3 | O=C(CCCCCCNc1c2c(nc3ccccc13)CCC2)NO [Example 3, 7-[(2,3-dihydro-1H-cyclopenta[b]quinolin-9-yl)amino]-N-hydroxyheptanamide] | 165 to 166 | > 5 | – | > 5
4 | O=C(CCCCCCNc1c2c(nc3ccccc13)CCCCC2)NO [Example 4, N-hydroxy-7-[(7,8,9,10-tetrahydro-6H-cyclohepta[b]quinolin-11-yl)amino]heptanamide] | 155 to 156 | > 5 | 0.015 | > 5
5 | COc1cccc2c(NCCCCCCC(=O)NO)c3c(nc12)CCCC3 [Example 5, N-hydroxy-7-[(5-methoxy-1,2,3,4-tetrahydroacridin-9-yl)amino]heptanamide] | 361 | > 5 | 0.015 | > 5
6 | O=C(CCCCCCNc1c2c(nc3ncccc13)CCCC2)NO [Example 7, N-hydroxy-7-[(6,7,8,9-tetrahydrobenzo[b][1,8]naphthyridin-5-yl)amino]heptanamide] | 234 to 235 | > 5 | 0.038 | > 5
7 | O=C(CCCCCCNc1c2c(nc3cnccc13)CCCC2)NO [Example 8, N-hydroxy-7-[(6,7,8,9-tetrahydrobenzo[b][1,7]naphthyridin-5-yl)amino]heptanamide] | 56.7 | > 5 | 0.033 | > 5
8 | O=C(CCCCCNC(=O)c1c2c(nc3ccccc13)CCCC2)NO [Example 10, N-[6-(hydroxyamino)-6-oxohexyl]-1,2,3,4-tetrahydroacridine-9-carboxamide] | 187 to 188 | > 5 | 0.33 | > 5
9 | O=C(CCCCCCNC(=O)c1c2c(nc3ccccc13)CCCC2)NO [Example 11, N-[7-(hydroxyamino)-7-oxoheptyl]-1,2,3,4-tetrahydroacridine-9-carboxamide] | 185 to 186 | 4.24 | 0.19 | > 5
